# Results published in ChEMBL document CHEMBL5360667, “Carboxylic Acid-Containing Indanyl Compounds as S1P5 Modulators for Treating Neurodegenerative Diseases” (ACS Med Chem Lett, 2023).
# Target: Sphingosine 1-phosphate receptor 5 (Homo sapiens) (UniProt Q9H228)
# Assay: Agonist activity at recombinant S1P5 (unknown origin) expressed in CHO cell membranes assessed as increase in [35S]GTPgammaS binding preincubated for 30 mins followed by [35S]GTPgammaS addition and measured after 40 mins by microbeta scintillation counter analysis
# Assay type: functional
# Settings: Membrane, filed as agonist, time 70.0 min
# Chain of Sphingosine 1-phosphate receptor 5 (Homo sapiens) (Q9H228 whole entry): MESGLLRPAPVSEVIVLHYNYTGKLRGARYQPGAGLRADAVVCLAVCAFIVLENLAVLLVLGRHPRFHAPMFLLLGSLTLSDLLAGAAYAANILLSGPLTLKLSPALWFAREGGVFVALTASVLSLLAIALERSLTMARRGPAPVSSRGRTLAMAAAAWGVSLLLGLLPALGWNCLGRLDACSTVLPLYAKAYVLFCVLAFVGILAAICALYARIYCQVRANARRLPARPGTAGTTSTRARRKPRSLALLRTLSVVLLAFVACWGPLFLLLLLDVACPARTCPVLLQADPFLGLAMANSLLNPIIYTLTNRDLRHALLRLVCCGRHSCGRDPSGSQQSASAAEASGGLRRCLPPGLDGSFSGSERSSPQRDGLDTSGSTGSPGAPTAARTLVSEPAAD
row,EC [nM],SMILES
1,< 1,O=C(O)C1CCN(C2CCc3c2ccc(OCc2c(Cl)cccc2Cl)c3F)CC1 (stereo unspecified)
2,1,O=C(O)C1CN(C2CCc3cc(OCc4cc(F)c(F)cc4F)ccc32)C1 (stereo unspecified)
3,1,CC(C)Oc1ccc(COc2ccc3c(c2)CCC3N2CC(C(=O)O)C2)cc1C(F)(F)F (stereo unspecified)
4,1,O=C(O)C1CN(C2CCc3cc(OCc4ccc(C5CC5)c(C(F)(F)F)c4)ccc32)C1 (stereo unspecified)
5,< 1,Cc1cc(OCc2c(Cl)cccc2Cl)cc2c1C(N1CCC(C(=O)O)CC1)CC2 (stereo unspecified)
6,< 1,Cc1c(OCc2c(Cl)cccc2Cl)ccc2c1CCC2N1CCC(C(=O)O)CC1 (stereo unspecified)
